Results taken from patent publication US20140302515A1, “BIOMARKERS FOR BREAST CANCER PATIENTS” (TUSKEGEE UNIVERSITY, priority 2010, published 2014).

How the values were obtained:
Type in all cases: cell-based
[1] = tested on: EGFR; assay: EGFR kinase inhibitor treatment, with or without EGF: Kaiso expression levels and nuclear staining
Protocol: Next, steps were taken to determine if EGFR signaling was involved in increasing Kaiso levels and/or cytoplasmic to nuclear trans-localization of Kaiso. All three cell lines were treated with EGF (10 ng/ml) over increasing time intervals of 30 minutes, 1 hour, and 24 hours. […] To determine the specificity of EGFR activity on Kaiso expression levels, an EGFR specific kinase inhibitor, PD153035, was also utilized in the presence or absence of EGF treatment.

[2] = tested on: Kaiso; assay: EGF treatment: Kaiso nuclear localization by immunofluorescence and subcellular fractionation; conditions: EGF 10 ng/ml; from 30 minutes to 24 hour; immunofluorescence; DU-145, DU-145WT, PC-3
Protocol: Unless otherwise set forth herein, immunofluorescence studies comprised plating cells on a 4-chamber slide with 20000 cells. After treatment, they were then washed with PBS, fixed for 30 minutes with cold methanol at room temperature, incubated at room temperature with Lysis Buffer containing 0.1 M Tris, 0.15M NaCl, 0.01 M EGTA, 1% Triton and 1 mM PMSF, blocked for 30 mins in 5% BSA dissolved in PBS, treated with primary antibody (1:100) overnight in the cold room. Cells were stained for p120^ctn and Kaiso.
Next, steps were taken to determine if EGFR signaling was involved in increasing Kaiso levels and/or cytoplasmic to nuclear trans-localization of Kaiso. All three cell lines were treated with EGF (10 ng/ml) over increasing time intervals of 30 minutes, 1 hour, and 24 hours. […] A key finding within DU-145 cells that lack nuclear Kaiso expression was the observation of a predominant Kaiso nuclear staining. […] To determine the specificity of EGFR activity on Kaiso expression levels, an EGFR specific kinase inhibitor, PD153035, was also utilized in the presence or absence of EGF treatment.

[3] = tested on: p120^ctn; assay: EGF stimulation: p120ctn tyrosine residues Y228, Y96, Y291; conditions: after 24 hours, DU-145 and DU-145WT
Protocol: Previous reports have observed that p120^ctn has a specific kinase activity for EGFR on tyrosine residue Y228. Additionally, p120^ctn is a known binding partner for Kaiso. Therefore, experiments were conducted determine whether this was apparent in prostate cancer cell lines as well. Given that p120^ctn has multiple tyrosine residues, including Y228, Y96, Y291, located within the regulator domain, the effect of EGF stimulation on each of these residues was studied. […] It was observed by immunofluorescence that Y228 expression remained cytosolic after 24 hours of EGF treatment.

[4] = tested on: Kaiso; assay: EGF treatment: Kaiso mRNA and protein levels by real-time RT-PCR and immunoblot
Protocol: Unless otherwise herein described, growth factors, such as recombinant human epidermal growth factor (“EGF”), were obtained commercially and was added to serum free media of DMEM and T-media with antibiotics.
Since EGFR over-expressing DU-145WT cells express higher levels of Kaiso than the original DU-145 cells, experiments were further conducted to determine if EGFR signaling would have a direct effect on Kaiso localization and/or expression in prostate cancer cells. As an initial experiment, a dose dependent treatment of EGF consisting of 10, 50 and 100 ng/ml was performed.

Molecule	Kaiso expression levels ([1]; 500 nM)	nuclear Kaiso staining ([1]; DU-145 and PC-3 cells)	EGF induced increases in Kaiso levels ([1]; pre-treatment before EGF, DU-145 and PC-3 cells)	nuclear accumulation of Kaiso [2]	expression of p120ctn Y228 (versus Y96 and Y291) [3]	increase in Kaiso mRNA and protein levels ([4]; EGF 10 ng/ml (lowest of 10, 50, 100 ng/ml), real-time RT-PCR and immunoblot)	Kaiso increases ([4]; EGF 10 ng/ml, 24 hour period, EGFR over-expressing DU145WT cells) [fold]	Kaiso increases at RNA and protein levels ([4]; EGF 10 ng/ml, over 24 hour period, DU-145 and PC-3 cells)
COc1cc2ncnc(Nc3cccc(Br)c3)c2cc1OC [PD153035]	significantly reduced	lack of nuclear Kaiso staining	completely blocked	–	–	–	–	–
EGF: recombinant human epidermal growth factor, obtained commercially	–	–	–	Visible nuclear accumulation of Kaiso	induced the specific increased expression of Y228	At least a two-fold increase	4	incremental Kaiso increases
